According to ChEMBL document CHEMBL1201862, “PubChem BioAssay data set” (2004):
The source made the active and inactive calls.

Experiments:
[1] = viability loss in human Jurkat cells – cell-based, luminescence, cytotoxicity control for P. falciparum gametocyte viability project, dose response (AID 1117277); type: functional;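 also: potency reflects loss of cellular ATP meaning fewer viable cells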
[2] = viability inhibitors of stage V gametocytes – luminescence, dose response (AID 1117278); type: functional, cell-based;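 also: gametocytes exposed to compound for 24 hours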
H9c2 = experiment: cells; type: functional, cell-based; settings: Rattus norvegicus, H9c2, Myocardium;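 also: confirmatory concentration-response retest of ultra-high-throughput screening hits for modulation of myocardial damage; cell death induced by hydrogen peroxide oxidative stress; compound pretreatment for 60 min then peroxide exposure for 2 h; potency is for protecting the cells against peroxide damage rather than for killing them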
[3] = target: Mitogen-activated protein kinase 10 (Homo sapiens, UniProt P53779); experiment: Dose response biochemical screening assay for inhibitors of c-Jun N-Terminal Kinase 3 (JNK3). [Related pubchem assays: 746 ]
[4] = THP-1 cell cytotoxicity, dose response, cytotoxicity control for non-replicating M. tuberculosis project (AID 489025); type: functional
cells = type: functional
[5] = microbe, parasite or virus in culture; type: functional; settings: Mycobacterium tuberculosis
[6] = viability loss of HPDE-C7K cells – cell-based, fluorescence, HTS, primary screen (AID 431); type: functional; settings: Homo sapiens
[7] = HPDE-C7 pancreatic duct cell viability loss – fluorescence, HTS (AID 430); type: functional, cell-based; settings: Homo sapiens
[8] = target: T1, Microphthalmia-associated transcription factor (Homo sapiens, UniProt O75030); experiment: reducers of TRPM1 reporter luminescence, concentration series – cell-based, SK-MEL-5, cherry-picked, set 3, MITF inhibitor project, dose response (AID 493073); type: functional;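 also: SK-MEL-5 melanoma cells with luciferase driven by the MITF target TRPM1 promoter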
T1 sequence (O75030 whole entry): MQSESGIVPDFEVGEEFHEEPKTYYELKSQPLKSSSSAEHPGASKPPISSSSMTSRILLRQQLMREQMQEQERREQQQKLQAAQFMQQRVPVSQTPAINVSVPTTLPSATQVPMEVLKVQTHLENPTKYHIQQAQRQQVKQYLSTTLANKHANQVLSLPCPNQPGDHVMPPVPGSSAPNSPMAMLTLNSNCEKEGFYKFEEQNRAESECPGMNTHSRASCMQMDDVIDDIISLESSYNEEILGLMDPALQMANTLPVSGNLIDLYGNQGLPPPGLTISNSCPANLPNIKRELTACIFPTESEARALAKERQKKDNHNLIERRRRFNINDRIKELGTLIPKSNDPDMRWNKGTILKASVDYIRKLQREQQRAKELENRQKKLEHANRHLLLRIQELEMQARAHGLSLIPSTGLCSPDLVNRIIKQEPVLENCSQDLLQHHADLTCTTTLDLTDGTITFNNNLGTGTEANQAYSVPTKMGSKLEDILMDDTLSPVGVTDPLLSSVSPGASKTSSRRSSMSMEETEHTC

[9] = target: T2, Heat shock factor protein 1 (Mus musculus, UniProt P38532); experiment: decrease of HSF1-responsive luciferase luminescence – cell-based, NIH3T3, dose retest, confirmation (AID 2382); type: functional;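 also: NIH3T3 fibroblasts with HSF1-driven luciferase reporter stressed by proteasome inhibitor MG132; luminescence from HSF1-driven luciferase expression after 8 hours of MG132 stress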
T2 sequence (P38532 whole entry): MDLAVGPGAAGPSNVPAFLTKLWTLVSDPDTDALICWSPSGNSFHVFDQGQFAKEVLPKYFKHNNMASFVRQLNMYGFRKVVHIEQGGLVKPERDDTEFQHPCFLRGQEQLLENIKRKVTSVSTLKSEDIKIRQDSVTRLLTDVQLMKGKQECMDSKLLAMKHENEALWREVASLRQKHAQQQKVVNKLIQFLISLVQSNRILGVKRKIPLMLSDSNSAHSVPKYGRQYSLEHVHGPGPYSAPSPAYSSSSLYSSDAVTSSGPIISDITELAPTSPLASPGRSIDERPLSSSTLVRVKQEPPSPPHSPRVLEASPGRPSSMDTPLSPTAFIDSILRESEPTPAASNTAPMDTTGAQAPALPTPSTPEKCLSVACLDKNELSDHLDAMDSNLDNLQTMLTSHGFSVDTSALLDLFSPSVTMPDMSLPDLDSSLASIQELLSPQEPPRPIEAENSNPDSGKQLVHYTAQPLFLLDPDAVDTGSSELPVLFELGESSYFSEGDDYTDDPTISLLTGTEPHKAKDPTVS

[10] = target: Glyceraldehyde-3-phosphate dehydrogenase (Homo sapiens, UniProt P04406)
[11] = target: Luciferin 4-monooxygenase (Photinus pyralis, UniProt P08659); experiment: Counter Screen for Luciferase-based Assay Positives. [Related pubchem assays: 620, 618, 411 ]
HT-1080 = experiment: HT1080 cell viability loss – fluorescence readout (AID 620); type: functional, cell-based; settings: Homo sapiens
[12] = NIH3T3 cell viability loss – ATP luminescence, mouse fibroblasts, counter-screen, dose response (AID 2010); type: functional, cell-based;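 also: cells exposed to compound for about 90 hours before reading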
Protein skinhead-1 = target: T3, Protein skinhead-1 (Caenorhabditis elegans, UniProt P34707); type: functional
T3 sequence (P34707 whole entry): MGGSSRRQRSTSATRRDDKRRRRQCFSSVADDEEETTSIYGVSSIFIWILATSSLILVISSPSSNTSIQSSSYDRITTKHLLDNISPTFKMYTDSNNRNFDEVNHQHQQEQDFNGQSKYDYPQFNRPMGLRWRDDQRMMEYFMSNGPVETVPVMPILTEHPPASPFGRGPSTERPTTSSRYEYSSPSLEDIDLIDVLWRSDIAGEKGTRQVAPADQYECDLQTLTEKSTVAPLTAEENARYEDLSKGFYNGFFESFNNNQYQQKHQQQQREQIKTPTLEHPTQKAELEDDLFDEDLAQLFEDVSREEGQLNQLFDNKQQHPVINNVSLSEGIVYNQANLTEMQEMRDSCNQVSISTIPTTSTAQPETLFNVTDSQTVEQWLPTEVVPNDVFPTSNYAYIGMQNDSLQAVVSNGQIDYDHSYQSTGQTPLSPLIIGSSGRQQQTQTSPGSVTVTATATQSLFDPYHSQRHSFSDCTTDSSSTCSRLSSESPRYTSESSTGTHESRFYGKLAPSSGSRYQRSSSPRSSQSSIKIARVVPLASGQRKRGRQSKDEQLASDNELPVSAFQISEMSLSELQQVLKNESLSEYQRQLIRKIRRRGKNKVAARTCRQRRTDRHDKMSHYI

[13] = Trypanosoma cruzi growth suppression in host cells – NIH3T3 host cells, beta-gal luminescence, confirmation (AID 2044); type: functional, cell-based;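 also: intracellular parasites grown in NIH/3T3 mouse fibroblasts as host cells; luminescent beta-galactosidase reporter signal from transgenic T. cruzi replicating inside host cells; inhibitors lower the luminescence signal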
[14] = general mammalian cell viability loss – inhibitor set, cherry-pick, set 2, cytotoxicity control for miR-122 modulator project, dose response (AID 720697); type: functional, cell-based
[15] = Luminescence Cell-Based Dose Retest to Confirm Inhibitors of Cancer Stem Cells. [Related pubchem assays (depositor defined):AID2717, AID2721]; type: functional; settings: Homo sapiens
[16] = target: T4, Histone-lysine N-methyltransferase NSD2 (Homo sapiens, UniProt O96028); type: biochemical
T4 sequence (O96028 whole entry): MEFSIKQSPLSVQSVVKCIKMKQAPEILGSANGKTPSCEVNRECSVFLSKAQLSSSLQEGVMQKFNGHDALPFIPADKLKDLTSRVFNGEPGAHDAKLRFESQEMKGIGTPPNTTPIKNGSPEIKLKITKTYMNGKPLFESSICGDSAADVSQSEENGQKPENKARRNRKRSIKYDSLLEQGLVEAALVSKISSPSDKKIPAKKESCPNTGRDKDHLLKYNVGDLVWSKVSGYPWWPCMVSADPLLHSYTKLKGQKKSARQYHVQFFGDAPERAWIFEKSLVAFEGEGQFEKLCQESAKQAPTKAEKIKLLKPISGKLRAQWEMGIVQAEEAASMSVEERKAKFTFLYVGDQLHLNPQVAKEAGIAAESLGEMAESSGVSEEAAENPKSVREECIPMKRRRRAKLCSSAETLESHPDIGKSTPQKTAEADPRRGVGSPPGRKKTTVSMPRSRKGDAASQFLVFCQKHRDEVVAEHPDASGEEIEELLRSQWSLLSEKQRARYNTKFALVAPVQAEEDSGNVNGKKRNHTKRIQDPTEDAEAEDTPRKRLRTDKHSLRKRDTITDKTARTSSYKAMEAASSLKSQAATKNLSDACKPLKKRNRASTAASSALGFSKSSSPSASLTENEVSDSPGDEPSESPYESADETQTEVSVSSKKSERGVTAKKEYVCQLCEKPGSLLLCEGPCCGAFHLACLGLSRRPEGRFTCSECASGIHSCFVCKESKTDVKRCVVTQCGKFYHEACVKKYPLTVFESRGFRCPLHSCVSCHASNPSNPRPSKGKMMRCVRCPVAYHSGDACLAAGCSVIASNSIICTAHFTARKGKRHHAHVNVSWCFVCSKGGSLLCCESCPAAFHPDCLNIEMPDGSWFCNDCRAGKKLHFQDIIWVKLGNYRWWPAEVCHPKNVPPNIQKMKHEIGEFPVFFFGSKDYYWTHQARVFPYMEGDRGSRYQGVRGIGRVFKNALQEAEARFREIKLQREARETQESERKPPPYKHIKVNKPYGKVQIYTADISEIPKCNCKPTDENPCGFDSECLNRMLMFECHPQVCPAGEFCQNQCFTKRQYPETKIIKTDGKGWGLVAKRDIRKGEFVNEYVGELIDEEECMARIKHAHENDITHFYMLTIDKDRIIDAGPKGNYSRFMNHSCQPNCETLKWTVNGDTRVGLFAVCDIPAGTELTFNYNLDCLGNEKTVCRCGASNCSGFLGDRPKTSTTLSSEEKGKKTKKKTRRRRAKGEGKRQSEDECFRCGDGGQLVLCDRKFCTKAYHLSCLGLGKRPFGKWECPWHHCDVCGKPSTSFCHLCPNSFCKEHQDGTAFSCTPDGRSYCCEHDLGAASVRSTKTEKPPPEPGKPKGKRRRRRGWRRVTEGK

[17] = target: Peroxisome proliferator-activated receptor gamma/Nuclear receptor coactivator 3 (Homo sapiens, UniProt P37231); type: functional;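 also: agonist potency for raising coactivator recruitment to the receptor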
[18] = target: Peroxisome proliferator-activated receptor gamma/Nuclear receptor coactivator 2 (Homo sapiens, UniProt P37231); type: functional;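 also: agonist potency for raising coactivator recruitment to the receptor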
[19] = target: Peroxisome proliferator-activated receptor gamma/Nuclear receptor coactivator 1 (Homo sapiens, UniProt P37231); type: functional;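 also: agonist potency as compounds enhance coactivator SRC-1 recruitment to PPARgamma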
[20] = growth inhibition of PfATP4-mutant resistant parasites – NITD609-resistant line, SYBR Green, dry powder, dose response (AID 1159571); type: functional, cell-based;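 also: parasites synchronized at ring stage by sorbitol before testing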
[21] = P. falciparum Dd2 growth inhibitors, dose response, SYBR Green, cherry-picked samples (AID 1159567); type: functional, cell-based
[22] = Dd2 malaria parasite growth inhibition potency – SYBR Green, dry powder samples, dose response (AID 1159566); type: functional, cell-based;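 also: potency for growth inhibition with lower SYBR green DNA signal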
[23] = growth inhibition of yeast DHODH-expressing 3D7 parasites – SYBR Green, dry powder samples, dose response (AID 1159570); type: functional, cell-based;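 also: parasite growth measured after 72 hours of compound exposure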

Chain of Mitogen-activated protein kinase 10 (P53779 whole entry): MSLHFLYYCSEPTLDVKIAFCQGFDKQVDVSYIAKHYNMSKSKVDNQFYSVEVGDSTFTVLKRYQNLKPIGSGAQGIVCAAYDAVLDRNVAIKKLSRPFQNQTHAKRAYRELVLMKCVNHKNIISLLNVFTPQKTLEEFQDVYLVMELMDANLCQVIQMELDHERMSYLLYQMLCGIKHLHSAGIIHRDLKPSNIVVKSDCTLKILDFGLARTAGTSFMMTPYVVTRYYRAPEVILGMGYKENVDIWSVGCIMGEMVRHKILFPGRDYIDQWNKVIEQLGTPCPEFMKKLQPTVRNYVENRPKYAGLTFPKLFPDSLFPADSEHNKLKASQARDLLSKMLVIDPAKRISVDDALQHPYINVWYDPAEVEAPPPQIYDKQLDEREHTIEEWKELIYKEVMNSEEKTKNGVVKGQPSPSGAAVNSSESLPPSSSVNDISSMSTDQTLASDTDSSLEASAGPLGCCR
Chain of Peroxisome proliferator-activated receptor gamma/Nuclear receptor coactivator 1 (P37231 whole entry): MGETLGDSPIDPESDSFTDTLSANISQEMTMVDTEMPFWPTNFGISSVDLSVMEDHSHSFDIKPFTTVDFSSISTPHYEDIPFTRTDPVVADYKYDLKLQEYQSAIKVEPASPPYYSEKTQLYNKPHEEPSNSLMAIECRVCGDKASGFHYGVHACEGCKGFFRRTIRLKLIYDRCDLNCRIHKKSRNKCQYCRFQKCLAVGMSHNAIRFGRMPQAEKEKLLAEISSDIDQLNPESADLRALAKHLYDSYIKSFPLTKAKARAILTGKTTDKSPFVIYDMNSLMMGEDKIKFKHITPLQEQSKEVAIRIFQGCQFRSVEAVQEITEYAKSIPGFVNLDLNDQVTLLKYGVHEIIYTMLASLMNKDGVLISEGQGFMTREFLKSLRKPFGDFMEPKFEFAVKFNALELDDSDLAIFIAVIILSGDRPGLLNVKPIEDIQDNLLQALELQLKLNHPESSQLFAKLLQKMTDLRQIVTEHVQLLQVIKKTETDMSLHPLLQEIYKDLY
Chain of Peroxisome proliferator-activated receptor gamma/Nuclear receptor coactivator 1 (Q15788 whole entry, further chain): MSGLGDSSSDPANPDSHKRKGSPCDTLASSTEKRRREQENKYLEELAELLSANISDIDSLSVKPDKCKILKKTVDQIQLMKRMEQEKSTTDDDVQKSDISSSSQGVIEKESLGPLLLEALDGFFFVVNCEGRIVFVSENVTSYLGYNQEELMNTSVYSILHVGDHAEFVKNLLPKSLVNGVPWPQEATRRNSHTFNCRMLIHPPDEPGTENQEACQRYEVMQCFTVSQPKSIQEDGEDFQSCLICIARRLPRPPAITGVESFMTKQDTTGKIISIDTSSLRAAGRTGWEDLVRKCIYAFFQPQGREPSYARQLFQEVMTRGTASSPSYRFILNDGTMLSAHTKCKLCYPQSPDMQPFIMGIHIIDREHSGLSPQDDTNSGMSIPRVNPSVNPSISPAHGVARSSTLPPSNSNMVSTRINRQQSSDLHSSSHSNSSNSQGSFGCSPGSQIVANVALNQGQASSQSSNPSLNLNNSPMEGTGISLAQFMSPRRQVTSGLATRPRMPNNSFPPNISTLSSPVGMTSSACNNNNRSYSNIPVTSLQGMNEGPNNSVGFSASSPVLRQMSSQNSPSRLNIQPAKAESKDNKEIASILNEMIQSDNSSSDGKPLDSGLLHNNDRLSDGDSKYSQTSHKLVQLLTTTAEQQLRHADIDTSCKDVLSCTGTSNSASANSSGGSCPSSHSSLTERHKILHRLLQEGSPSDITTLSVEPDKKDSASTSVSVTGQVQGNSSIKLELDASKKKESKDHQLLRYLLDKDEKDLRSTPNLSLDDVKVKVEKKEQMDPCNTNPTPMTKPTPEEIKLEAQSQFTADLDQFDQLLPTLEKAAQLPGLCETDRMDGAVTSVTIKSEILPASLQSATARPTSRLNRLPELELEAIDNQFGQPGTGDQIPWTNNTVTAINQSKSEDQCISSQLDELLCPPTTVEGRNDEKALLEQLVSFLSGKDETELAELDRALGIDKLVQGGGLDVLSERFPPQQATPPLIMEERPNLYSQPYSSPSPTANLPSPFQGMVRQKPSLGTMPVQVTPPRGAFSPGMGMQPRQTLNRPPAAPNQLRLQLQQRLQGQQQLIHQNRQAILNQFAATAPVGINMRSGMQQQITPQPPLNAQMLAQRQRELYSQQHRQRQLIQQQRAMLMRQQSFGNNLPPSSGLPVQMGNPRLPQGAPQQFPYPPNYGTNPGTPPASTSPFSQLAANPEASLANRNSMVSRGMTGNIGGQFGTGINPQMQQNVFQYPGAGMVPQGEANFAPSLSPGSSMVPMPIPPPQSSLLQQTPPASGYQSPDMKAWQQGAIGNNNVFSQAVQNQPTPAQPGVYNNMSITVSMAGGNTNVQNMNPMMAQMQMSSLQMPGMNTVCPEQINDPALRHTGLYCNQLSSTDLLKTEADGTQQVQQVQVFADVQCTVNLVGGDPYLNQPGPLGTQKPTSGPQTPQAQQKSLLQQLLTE
Chain of Peroxisome proliferator-activated receptor gamma/Nuclear receptor coactivator 2 (P37231 whole entry): as the sequence (P37231 whole entry) above
Chain of Peroxisome proliferator-activated receptor gamma/Nuclear receptor coactivator 2 (Q15596 whole entry, further chain): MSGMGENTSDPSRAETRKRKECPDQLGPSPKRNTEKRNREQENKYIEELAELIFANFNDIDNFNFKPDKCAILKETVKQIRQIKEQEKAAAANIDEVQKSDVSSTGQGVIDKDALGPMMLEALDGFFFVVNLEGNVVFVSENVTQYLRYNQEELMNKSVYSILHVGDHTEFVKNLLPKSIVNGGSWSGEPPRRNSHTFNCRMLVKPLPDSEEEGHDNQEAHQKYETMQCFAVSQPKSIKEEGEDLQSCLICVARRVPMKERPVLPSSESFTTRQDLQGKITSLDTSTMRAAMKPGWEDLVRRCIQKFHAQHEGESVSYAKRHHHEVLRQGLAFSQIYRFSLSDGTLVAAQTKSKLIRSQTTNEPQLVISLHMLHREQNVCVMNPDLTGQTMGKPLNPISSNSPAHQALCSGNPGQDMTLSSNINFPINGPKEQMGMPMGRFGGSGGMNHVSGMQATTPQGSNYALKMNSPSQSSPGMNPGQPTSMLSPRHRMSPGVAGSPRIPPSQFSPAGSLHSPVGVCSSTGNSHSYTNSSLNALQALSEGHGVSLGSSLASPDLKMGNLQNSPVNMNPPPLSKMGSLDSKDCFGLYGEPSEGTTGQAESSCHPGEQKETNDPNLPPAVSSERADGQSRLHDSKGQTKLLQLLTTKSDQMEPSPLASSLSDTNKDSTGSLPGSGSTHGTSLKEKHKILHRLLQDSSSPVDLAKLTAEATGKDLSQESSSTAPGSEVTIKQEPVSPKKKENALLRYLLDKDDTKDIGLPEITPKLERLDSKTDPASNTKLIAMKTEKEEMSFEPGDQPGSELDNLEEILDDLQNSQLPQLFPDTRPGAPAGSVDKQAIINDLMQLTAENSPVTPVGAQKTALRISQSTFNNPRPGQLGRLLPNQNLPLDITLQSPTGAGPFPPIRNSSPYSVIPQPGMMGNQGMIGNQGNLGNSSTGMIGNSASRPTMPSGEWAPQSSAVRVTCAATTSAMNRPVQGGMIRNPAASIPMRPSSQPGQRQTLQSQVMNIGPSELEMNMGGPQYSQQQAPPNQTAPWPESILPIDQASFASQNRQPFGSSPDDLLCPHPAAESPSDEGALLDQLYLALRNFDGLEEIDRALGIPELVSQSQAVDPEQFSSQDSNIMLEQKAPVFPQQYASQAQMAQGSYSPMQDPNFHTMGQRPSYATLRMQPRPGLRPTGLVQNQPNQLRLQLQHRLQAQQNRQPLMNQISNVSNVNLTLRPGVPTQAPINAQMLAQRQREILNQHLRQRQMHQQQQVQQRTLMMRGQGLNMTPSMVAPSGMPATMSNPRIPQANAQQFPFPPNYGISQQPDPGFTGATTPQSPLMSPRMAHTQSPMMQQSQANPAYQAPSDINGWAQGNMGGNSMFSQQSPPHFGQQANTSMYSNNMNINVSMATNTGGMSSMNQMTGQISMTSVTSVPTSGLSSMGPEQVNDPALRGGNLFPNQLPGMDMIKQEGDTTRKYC
Chain of Luciferin 4-monooxygenase (P08659 whole entry): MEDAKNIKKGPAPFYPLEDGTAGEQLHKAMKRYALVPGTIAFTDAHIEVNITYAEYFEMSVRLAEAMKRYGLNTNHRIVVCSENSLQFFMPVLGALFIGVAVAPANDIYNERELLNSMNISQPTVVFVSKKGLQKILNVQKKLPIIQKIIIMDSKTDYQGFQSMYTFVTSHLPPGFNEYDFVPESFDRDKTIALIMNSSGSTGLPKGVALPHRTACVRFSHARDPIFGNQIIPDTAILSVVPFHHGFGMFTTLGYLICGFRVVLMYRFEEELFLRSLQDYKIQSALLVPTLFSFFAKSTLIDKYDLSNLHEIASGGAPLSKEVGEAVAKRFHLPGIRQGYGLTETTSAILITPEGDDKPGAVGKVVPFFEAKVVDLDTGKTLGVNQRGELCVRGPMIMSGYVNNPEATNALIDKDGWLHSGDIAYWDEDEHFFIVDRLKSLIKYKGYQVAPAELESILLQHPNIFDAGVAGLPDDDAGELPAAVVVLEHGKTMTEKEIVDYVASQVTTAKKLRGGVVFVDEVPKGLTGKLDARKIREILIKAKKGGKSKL

Cc1ccc(NC(=O)C2CCN(c3nc(C)cc(C)n3)CC2)cc1
IC50 [1]: > 83.3 µM (inactive) | IC50 [2]: > 109 µM (inactive)

COc1ccc(OC)c(Nc2nc(N)nc(-c3cc4ccccc4o3)n2)c1
IC50 (H9c2): > 79 µM (inactive) | IC50 [3]: 47.8 µM (not active)

CCn1c(C(C)NC(C)=O)nc2ccccc21 (centres undefined)
IC50 [3]: > 93.1 µM (not active)

Nc1nc2ccccc2n1CCOc1ccc(Br)cc1
CC50 [4]: 39.4 µM (active) | IC50 (cells): 31.8 µM (active)

O=C(Cc1c[nH]c2ccccc12)Nc1nccs1
IC50 [1]: > 83.3 µM (inactive) | IC50 [2]: > 109 µM (inactive)

COc1cccc(N2CCN(c3[nH]cnc4c5ccccc5nc3-4)CC2C)c1 (centres undefined)
CC50 [5]: 7.28 µM (active) | EC50 [6]: 3.01 µM (active) | EC50 [7]: 3.33 µM (active)

Cc1cc(C(=O)Nc2cccc(C(=O)O)c2)oc1C
AC50 [8]: 4.35 µM (active) | EC50 [9]: 6.56 µM (active) | IC50 [10]: > 100 µM (not active) | EC50 [11]: < 0.2 µM (active) | EC50 (HT-1080): > 50 µM (not active)

N=c1c2c(-c3ccccc3)c(-c3ccccc3)n(Cc3ccccc3)c2ncn1CCCO
EC50 [12]: > 60 µM (inconclusive) | IC50 (Protein skinhead-1): > 100 µM (inactive) | EC50 [13]: 1.26 µM (active) | AC50 [14]: 7.08 µM (active)

CCCn1c(=S)[nH]c2cc(C(=O)N3CCc4ccccc4C3)ccc2c1=O
IC50 [1]: > 83.3 µM (inactive) | IC50 [2]: > 109 µM (inactive)

O=C(CCCn1c(=O)[nH]c2cc(Cl)ccc2c1=O)NCCCN1CCCC1
IC50 [1]: > 83.3 µM (inactive) | IC50 [2]: > 109 µM (inactive)

CC(C)(C)c1nc(N2CCN(C(=O)c3ccco3)CC2)c2nnn(Cc3ccccc3Cl)c2n1
EC50 [6]: 5.38 µM (active) | EC50 [7]: 4.47 µM (active) | AC50 [15]: 3.44 µM (active)

CNCCCOc1cccc(OC(C)C)c1
AC50 [16]: 17.3 µM (active)

CCN(CC)CCCNC(=O)c1ccc2c(SCC(=O)O)c3c(nc2c1)CCC3
EC50 [17]: > 79.4 µM (not active) | EC50 [18]: > 79.4 µM (not active) | EC50 [19]: > 79.4 µM (not active)

COc1ccc(-c2c3c([nH]c(=S)c2C#N)CCC3)cc1
IC50 [3]: 17.6 µM (not active)

Cc1ccccc1-n1c(S)nnc1-c1ccco1
EC50 [17]: > 79.4 µM (not active) | EC50 [18]: > 79.4 µM (not active) | EC50 [19]: > 79.4 µM (not active)

C/C=C/c1ccc([C@H]2[C@@H](CO)N[C@@H]2CN(CC)C(=O)CN2CCOCC2)cc1
AC50 [14]: 47.6 µM (active)

CN(C)/C=N/C(=O)/C(C#N)=C1\CCc2ccccc2N1
IC50 [3]: > 93.1 µM (not active)

COCCCNC(=O)c1c(N)n(/N=C/c2cccs2)c2nc3ccccc3nc12
EC50 [6]: > 20 µM (not active) | EC50 [7]: 9.78 µM (active)

COc1ccc(C#Cc2ccc3c(c2)O[C@@H](CN(C)C(=O)Nc2cccc(OC)c2)[C@H](C)CN([C@H](C)CO)S3(=O)=O)cc1
AC50 [20]: 0.986 µM (active) | AC50 [21]: 1.5 µM (active) | AC50 [22]: 0.662 µM (active) | AC50 [23]: 0.799 µM (active)

C[C@H](CO)N1C[C@H](C)[C@H](CN(C)S(=O)(=O)c2ccc(C#N)cc2)OCc2ccccc2-c2c(n(C)c3ccccc23)C1=O
AC50 [20]: 0.41 µM (active) | AC50 [21]: 1.25 µM (active) | AC50 [22]: 0.314 µM (active) | AC50 [23]: 0.563 µM (active)

COc1ccc(-c2cc3nnc(-c4ccccc4)nc3s2)cc1
IC50 [10]: > 100 µM (not active) | EC50 [11]: 0.27 µM (active) | EC50 (HT-1080): > 50 µM (not active)

NC(N)=Nc1nc(CSCCC(N)=NS(N)(=O)=O)cs1 [FAMOTIDINE]
EC50 [17]: > 79.4 µM (not active) | EC50 [18]: > 79.4 µM (not active) | EC50 [19]: > 79.4 µM (not active)
